Reference: PMC9636434, “Discovery of small molecule agonists of the Relaxin Family Peptide Receptor 2” (Communications Biology, 2022)
Where “and” joins values, the source holds several entries; their conditions need not be identical. Equal entries are not always repeated. Where two headings read alike, the source gives them in different places.

Assay: Pharmacokinetic study, 3 mg/kg IV, 10 mg/kg PO and 10 mg/kg PO QD*3, plasma, liver and bone
Assay type: in vivo, mouse
Conditions: for Plasma concentration: individual values (1)-(3)
Method: The concentration of compound in plasma, liver, and long bones was detected using liquid chromatography tandem mass spectrometry (LC-MS/MS). Samples were collected after a single intraperitoneal (IP) administration at 30 mg/kg, a single intravenous (IV) administration at 3 mg/kg, a single oral (PO) administration at 10 mg/kg, and a daily PO administration for 3 consecutive days at 10 mg/kg. The compound was formulated in 75% PEG300 + 25% of 40% aq. HPBCD for IV and PO administration and in 60% Phosal + 40% PEG300 for IP administration. All tissue samples were homogenized in water at a tissue weight to water volume ratio 1:3.
IV administration, one 10 mg/kg PO administration and three 10 mg/kg PO administrations (QD*3). a Plasma, b liver and c bone profiles in female mice. The actual concentration (ng/g) is the detected value (ng/mL) multiplied by 4. Drug vehicle is 25% aq. 40% HP-b-CD - 75% PEG300. 3 mice were used per time point. Results are expressed as the mean ± SEM.

[1] = female, C57BL/6J, mouse, bone (long bones), iv, 3 mg/kg, bone, IV, individual animals, read-out: Bone 6641 IV concentration
[2] = female, C57BL/6J, mouse, bone (long bones), po, 10 mg/kg, bone, PO (QD*3), individual animals, read-out: Bone 6641 PO (QD*3) concentration
[3] = female, C57BL/6J, mouse, bone (long bones), po, 10 mg/kg, bone, PO, individual animals, read-out: Bone 6641 PO concentration
[4] = female, C57BL/6 J, mouse, liver, iv, 3 mg/kg, liver, IV, individual animals, read-out: Liver 6641 IV concentration

O=C1Nc2ccc(-c3cc(C(F)(F)F)cc(C(F)(F)F)c3)cc2C(=O)N2CCN(C(=O)COc3ccc(OC(F)(F)F)cc3I)C[C@@H]12 [compound 6641]
accumulation (10 mg/kg PO daily for 3 consecutive days): no accumulation | half-life (C57BL/6J, mouse, in vivo, female mice, depending on the route of administration (3 mg/kg IV, 10 mg/kg PO)): 240 to 390 min | bioavailability (C57BL/6J, mouse, plasma, 10 mg/kg PO, female mice): 25 to 31% | maximum concentration in bone tissue (IV administration, 3 mg/kg): 1072 ng/g | Plasma concentration (IV, Time 0.083 h): 2772 ng/mL and 2884 ng/mL | Plasma concentration (IV, Time 0.25 h): 1472 ng/mL and 1152 ng/mL | Plasma concentration (IV, Time 0.5 h): 786 ng/mL and 964 ng/mL | Plasma concentration (IV, Time 1 h): 583 ng/mL and 464 ng/mL | Plasma concentration (IV, Time 3 h): 259 ng/mL and 205 ng/mL | Plasma concentration (IV, Time 7 h): 84.8 ng/mL and 68.4 ng/mL | Plasma concentration (IV, Time 24 h): 4.08 ng/mL and 5.43 ng/mL | Plasma concentration (IV, Time 48 h, N/A: Below detection level): 0.868 ng/mL | Plasma concentration (PO (QD*3), Time 0.083 h): 7.56 ng/mL and 5.2 ng/mL | Plasma concentration (PO (QD*3), Time 0.25 h): 57.1 ng/mL and 50.6 ng/mL | Plasma concentration (PO (QD*3), Time 0.5 h): 185 ng/mL and 245 ng/mL and 104 ng/mL | Plasma concentration (PO (QD*3), Time 1 h): 484 ng/mL and 346 ng/mL | Plasma concentration (PO (QD*3), Time 3 h): 344 ng/mL | Plasma concentration (PO (QD*3), Time 7 h): 125 ng/mL and 179 ng/mL | Plasma concentration (PO (QD*3), Time 24 h): 3.9 ng/mL and 5.49 ng/mL | Plasma concentration (PO (QD*3), Time 48 h, N/A: Below detection level): 1 ng/mL | maximum concentration in bone tissue (PO administration, 10 mg/kg): 170 to 300 ng/g | Plasma concentration (PO, Time 0.25 h): 32.7 ng/mL and 59.5 ng/mL | Plasma concentration (PO, Time 0.5 h): 159 ng/mL and 69 ng/mL and 120 ng/mL | Plasma concentration (PO, Time 1 h): 406 ng/mL and 323 ng/mL | Plasma concentration (PO, Time 3 h): 247 ng/mL and 204 ng/mL | Plasma concentration (PO, Time 7 h): 141 ng/mL and 122 ng/mL | Plasma concentration (PO, Time 24 h): 8.08 ng/mL and 4.6 ng/mL | concentration at 0.5 h (female, C57BL/6J, mouse, bone (long bones), 10 mg/kg, bone, PO, individual animals, read-out: Bone 6641 PO concentration): 20.3 ng/g | concentration at 0.083 h [1]: 1180 ng/g | concentration at 0.25 h [1]: 1100 ng/g | concentration at 0.5 h [1]: 711 ng/g | concentration at 1 h [1]: 632 ng/g | concentration at 3 h [1]: 337 ng/g | concentration at 7 h [1]: 87.9 ng/g | concentration at 48 h (female, C57BL/6J, mouse, bone (long bones), iv, 3 mg/kg, bone, IV, 48 h, individual animals, N/A: Below detection level, read-out: Bone 6641 IV concentration): 3.84 ng/g | concentration at 0.25 h [2]: 19.5 ng/g | concentration at 0.5 h [2]: 54.2 ng/g | concentration at 1 h [2]: 168 ng/g | concentration at 3 h [2]: 337 ng/g | concentration at 7 h [2]: 141 ng/g | concentration at 24 h (female, C57BL/6J, mouse, bone (long bones), po, 10 mg/kg, bone, PO (QD*3), 24 h, individual animals, read-out: Bone 6641 PO (QD*3) concentration): 7.05 ng/g | concentration at 0.083 h (female, C57BL/6J, mouse, bone (long bones), po, 10 mg/kg, bone, PO, individual animals, N/A: Below detection level, read-out: Bone 6641 PO concentration): 3.07 ng/g | concentration at 0.25 h [3]: 5.39 ng/g | concentration at 0.5 h [3]: 27.1 ng/g | concentration at 1 h [3]: 114 ng/g | concentration at 3 h [3]: 140 ng/g | concentration at 0.083 h [4]: 26000 ng/g | concentration at 0.25 h [4]: 17200 ng/g
